{"source": "paper PMC6009863", "about": "“Symmetric molecules with 1,4-triazole moieties as potent inhibitors of tumour-associated lactate dehydrogenase-A” (Journal of Enzyme Inhibition and Medicinal Chemistry, 2017)", "note": "pIC50: −log10 of the molar value.", "data": [{"tested_on": "LDHA", "test": "not given", "parameters": "method as in PMID 22417091", "conditions": "NMR and SPR fragment based hit identification series; read-out: IC50 (LDHA inhibition); cited from earlier work", "values": [{"smiles": "CCCSc1nc2ccc(NC(=O)CCNC(=O)CCCc3ccc(CC(C(=O)O)C(=O)O)cc3)cc2s1", "note": "[A]", "pIC50": 6.57}]}, {"target": "T1, recombinant human LDHA protein (Homo sapiens, UniProt P00338)", "T1 construct": "purchased Abcam ab93699", "test": "LDHA inhibition assay (Lactate Dehydrogenase Assay Kit, colorimetric)", "format": "biochemical", "conditions": "mean from three different assays, colorimetric assay measuring absorbance at 450 nm, errors ±5–10%", "procedure": "All 15 symmetrical compounds were evaluated for their ability to inhibit LDHA, for the comparison galloflavin as a known isoform nonselective LDHA inhibitor[20] was used. Our choice of galloflavin was based on the fact that it is extensively studied as potent anticancer agents in recent years; additionally, galloflavin is already commercially available.\nLactate Dehydrogenase Assay Kit (Abcam, ab102526) and recombinant human LDHA protein (Abcam, ab93699) were used to assess the inhibitory effect of the tested compounds. First we generated a NADH standard curve for colorimetric detection by measuring the OD (450 nm) at different molar amounts of NADH. The linear regression equation of the curve was derivatized in Graphpad Prism. Tested compounds were dissolved in DMSO and their inhibitory activity was assessed at 140 and 300 μM strength. Galloflavin (Sigma, SML0776) at the same molar concentration was used as a known LDH inhibitor. The master reaction mix composed of LDH assay buffer and 10 ng human LDHA […] per reaction was prepared. Tested compounds were added and the final reaction volume was adjusted to 50 µL. Absorbance at 450 nm was taken after 2-3 minutes (T-initial) and continued every minute for 118 mins (T-final). The change in measurement over time (delta A450) was calculated as T-final minus T-initial. The amount of NADH generated by the assay between T-initial and T-final was deduced by comparing the A450 of each sample to the standard NADH standard curve. […]", "values": [{"smiles": "COc1cc(-c2cn(CC(=O)NCc3ccc(C(=O)O)cc3)nn2)cc(-c2cn(CC(=O)NCc3ccc(C(=O)O)cc3)nn2)c1", "note": "[Compound 21b]", "pIC50": 3.89}, {"smiles": "NS(=O)(=O)c1ccc(CNC(=O)Cn2cc(-c3cccc(-c4cn(CC(=O)NCc5ccc(S(N)(=O)=O)cc5)nn4)c3)nn2)cc1", "note": "[Compound 11a]", "pIC50": 3.80}, {"smiles": "O=C(Cn1cc(-c2cccc(-c3cn(CC(=O)Nc4ccc([N+](=O)[O-])cc4)nn3)c2)nn1)Nc1ccc([N+](=O)[O-])cc1", "note": "[Compound 7c]", "pIC50": 3.76}, {"smiles": "NS(=O)(=O)c1ccc(NC(=O)Cn2cc(-c3cccc(-c4cn(CC(=O)Nc5ccc(S(N)(=O)=O)cc5)nn4)c3)nn2)cc1", "note": "[Compound 7a]", "pIC50": 3.89}, {"smiles": "O=C(Cn1cc(-c2cncc(-c3cn(CC(=O)Nc4ccc(C(=O)O)cc4)nn3)c2)nn1)Nc1ccc(C(=O)O)cc1", "note": "[Compound 15b]", "pIC50": 3.90}, {"smiles": "O=C(Cn1cc(-c2cncc(-c3cn(CC(=O)NCc4ccc(C(=O)O)cc4)nn3)c2)nn1)NCc1ccc(C(=O)O)cc1", "note": "[Compound 16b]", "pIC50": 3.93}, {"smiles": "NS(=O)(=O)c1ccc(CNC(=O)Cn2cc(-c3cncc(-c4cn(CC(=O)NCc5ccc(S(N)(=O)=O)cc5)nn4)c3)nn2)cc1", "note": "[Compound 16a]", "pIC50": 3.76}, {"smiles": "O=c1oc2c(cc1O)oc(=O)c1cc(O)c(O)c(O)c12", "note": "[Galloflavin, reference compound]", "pIC50": 3.80}, {"smiles": "COc1cc(-c2cn(CC(=O)Nc3ccc(C(=O)O)cc3)nn2)cc(-c2cn(CC(=O)Nc3ccc(C(=O)O)cc3)nn2)c1", "note": "[Compound 20b]", "pIC50": 3.90}, {"smiles": "NS(=O)(=O)c1ccc(NC(=O)Cn2cc(-c3cncc(-c4cn(CC(=O)Nc5ccc(S(N)(=O)=O)cc5)nn4)c3)nn2)cc1", "note": "[Compound 15a]", "pIC50": 3.87}, {"smiles": "COc1cc(-c2cn(CC(=O)Nc3ccc([N+](=O)[O-])cc3)nn2)cc(-c2cn(CC(=O)Nc3ccc([N+](=O)[O-])cc3)nn2)c1", "note": "[Compound 20c]", "pIC50": 3.79}, {"smiles": "O=C(Cn1cc(-c2cccc(-c3cn(CC(=O)NCc4ccc(C(=O)O)cc4)nn3)c2)nn1)NCc1ccc(C(=O)O)cc1", "note": "[Compound 11b]", "pIC50": 3.81}, {"smiles": "O=C(Cn1cc(-c2cccc(-c3cn(CC(=O)Nc4ccc(C(=O)O)cc4)nn3)c2)nn1)Nc1ccc(C(=O)O)cc1", "note": "[Compound 7b]", "pIC50": 3.92}, {"smiles": "COc1cc(-c2cn(CC(=O)Nc3ccc(S(N)(=O)=O)cc3)nn2)cc(-c2cn(CC(=O)Nc3ccc(S(N)(=O)=O)cc3)nn2)c1", "note": "[Compound 20a]", "pIC50": 3.78}, {"smiles": "O=C(Cn1cc(-c2cncc(-c3cn(CC(=O)Nc4ccc([N+](=O)[O-])cc4)nn3)c2)nn1)Nc1ccc([N+](=O)[O-])cc1", "note": "[Compound 15c]", "pIC50": 3.81}, {"smiles": "COc1cc(-c2cn(CC(=O)NCc3ccc(S(N)(=O)=O)cc3)nn2)cc(-c2cn(CC(=O)NCc3ccc(S(N)(=O)=O)cc3)nn2)c1", "note": "[Compound 21a]", "pIC50": 3.76}]}, {"tested_on": "LDHA", "test": "not given", "parameters": "method as in PMID 30108883", "conditions": "docking-based virtual screening hit; read-out: IC50 (LDHA inhibition potency in vitro); cited from earlier work", "values": [{"smiles": "CCc1cc(=O)c(O)c([C@@H](CC(N)=O)c2cc3ccccc3n(CC(C)C)c2=O)o1", "note": "[C]", "pIC50": 6.48}]}, {"tested_on": "LDHA", "test": "not given", "parameters": "method as in PMID 23302067", "conditions": "fragment-based hit identification series; read-out: IC50 (LDHA inhibition); cited from earlier work", "values": [{"smiles": "COc1cc(OC[C@@H](O)[C@@H](O)[C@H](O)[C@H](O)CNc2cc(F)cc(-c3ccc(C(=O)O)cn3)c2)c(Cl)cc1NC(=O)CSc1ccc(C(=O)O)cn1", "note": "[B]", "pIC50": 6.92}]}, {"tested_on": "not given", "test": "not given", "conditions": "not given", "units": {"melting point": "°C"}, "values": [{"smiles": "O=C(Cn1cc(-c2cccc(-c3cn(CC(=O)Nc4ccc(C(=O)O)cc4)nn3)c2)nn1)Nc1ccc(C(=O)O)cc1", "note": "[Compound 7b]", "melting point": "291 to 292"}]}]}
